Activity calls are given as the source filed them.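 Rule for the calls: active = fitted curve falls past a set limit of signal loss at no more than twice the top dose; inconclusive = flat fit between 30 and 70% signal loss, or poor fit; inactive = signal rise, flat within 30%, or crossing too high.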
Assay: HEK293T cell cytotoxicity, dose response, cytotoxicity control, CellTiter-Glo luminescence, cherry-pick, set 3 (AID 720588)
Details: HEK293T viability, CellTiter-Glo ATP luminescence, 72 h

SMILES	activity change, negative = cytotoxicity (at 26 µM (top of the series))	also measured
C[C@H](CO)N1C[C@H](C)[C@H](CN(C)Cc2ccccc2)Oc2ccc(NC(=O)CCCCCC(=O)Nc3ccccc3N)cc2CC1=O		activity change, negative = cytotoxicity (at 23.5 µM (top of the series)): -0.084% (inactive)
COc1ccc(Nc2ncnc3ccc(Br)cc23)c(OC)c1	-18.8% (inactive)	
O=C(O)c1ccc(N/N=C/c2ccc(OC(=O)c3cccc(Cl)c3)cc2)cc1	-29.8% (inactive)	
COc1ccc(S(=O)(=O)Nc2cccc3c2O[C@H](CN(C)Cc2ccc(C(=O)Nc4ccccc4N)cc2)[C@H](C)CN([C@@H](C)CO)C3=O)cc1		activity change, negative = cytotoxicity (at 21 µM (top of the series)): -18.8% (inactive)
COC(=O)[C@H]1[C@H](CO)[C@H]2Cn3c(ccc(-c4ccccc4F)c3=O)[C@@H]1N2CC1CCCC1	56.8% (inactive)	
CCOc1ccc(/C=C2\CCc3ccccc3C2=O)cc1	-4.04% (inactive)	
CO[C@H]1CN(C)C(=O)c2cc(NC(=O)NC(C)C)ccc2OC[C@H](C)N(Cc2ccc(-c3ccccn3)cc2)C[C@@H]1C	-13.6% (inactive)	
C[C@@H]1CN([C@@H](C)CO)C(=O)Cc2cc(NS(=O)(=O)c3cccs3)ccc2O[C@H]1CN(C)Cc1ccc(Cl)c(Cl)c1	-34.4% (inactive)	
CCc1cnc(N2[C@H](C#N)[C@H](c3ccc(C#Cc4ccccc4F)cc3)[C@H]2CO)s1	-15.3% (inactive)	
COc1cc(C(=O)N2CCC(N3CCN(C)CC3)CC2)ccc1Nc1ncc2c(n1)N(C)c1ccccc1C(=O)N2C	-1.13% (inactive)	
CCOc1ccc(-c2cc(CCCC(=O)N3CCN(c4ccc(OC)cc4)CC3)no2)cc1	-8.72% (inactive)	
Nc1ccc(Oc2ccccc2-c2ccccc2)cc1	-8.94% (inactive)	
C[C@H]1CN([C@@H](C)CO)C(=O)Cc2cc(NC(=O)CCCCCC(=O)Nc3ccccc3N)ccc2O[C@H]1CN(C)Cc1ccc(Oc2ccccc2)cc1	-3.08% (inactive)	
Cc1ccccc1N=CC1=C(O)c2ccccc2C1=O	1.79% (inactive)	
CN(C(=O)COC(=O)c1cc(-c2ccccc2Cl)nc2ccccc12)C1CCS(=O)(=O)C1 (stereo not drawn)	-26.1% (inactive)	
C/C(=N\N(c1ccccc1)c1ccccc1)c1ccco1	-14.9% (inactive)	
COc1ccccc1N(/N=C1\Sc2ccccc2C1=O)C(C)=O	-23.6% (inactive)	
CC(Oc1cccc(Cl)c1)C(=O)NCCCCc1ccccc1 (stereo not drawn)	-2.08% (inactive)	
CCOC(=O)Cc1ccc(NC(=O)c2ccccc2Br)cc1	-14.3% (inactive)	
CC(=O)c1ccc(N(C(=O)Cn2nnc3ccccc32)C(C(=O)NCc2ccccc2)c2ccccn2)cc1 (stereo not drawn)	-21.8% (inactive)	
O=S(=O)(c1ccc(F)cc1)N1C[C@H]2[C@@H](c3ccccc31)[C@H](CO)N2Cc1ccccc1Cl		activity change, negative = cytotoxicity (at 23.5 µM (top of the series)): -5.62% (inactive)
C[C@@H]1CN([C@@H](C)CO)C(=O)Cc2cc(N(C)C)ccc2O[C@@H]1CN(C)Cc1ccccc1	-17.5% (inactive)	
CCCN1C(=O)/C(=C/c2nc3ccccc3c(=O)[nH]2)c2ccccc21	-9.06% (inactive)	
CC(=O)Nc1cc(C(=O)NCc2ccco2)ccc1Sc1ccc(F)cc1	12.1% (inactive)	
COc1cc2c(cc1OC)C(C)N(C(=O)c1cc(Cl)nc(Cl)c1)CC2 (stereo not drawn)	-13.4% (inactive)	
Cc1ccccc1NC(=O)C(=Cc1ccc(C(=O)O)cc1)C(=O)Nc1ccccc1C	-47.2% (inactive)	
COC(=O)c1cccc(NC(=O)NC(=O)c2ccc(Cl)cc2)c1	-17% (inactive)	

SMILES	activity change, negative = cytotoxicity (at 26 µM (top of the series))	also measured
CCCc1cc(=O)oc2c3c(c4c(c12)OC(C)(C)C=C4)OC(C)C(C)C3O (stereo not drawn)	-7.17% (inactive)	
COc1ccc(NC(=O)c2cc3ccccc3oc2=O)cc1	-17.4% (inactive)	
Cc1noc(C)c1NC(=O)Nc1ccc2c(c1)CC(=O)N([C@@H](C)CO)C[C@@H](C)[C@@H](CN(C)Cc1ccc(Cl)c(Cl)c1)O2	61.4% (inactive)	
COc1ccc(C(C)(O)c2nc(-c3cccc(F)c3)cs2)cc1 (stereo not drawn)	-24.1% (inactive)	
CC(C)(C)[S@](=O)N1Cc2cc(C(=O)NCC(F)(F)F)nc(-c3cccc(-c4cccc(F)c4)c3)c2[C@@H]1CCO	-2.37% (inactive)	
COc1cc(/C=C/C(=O)/C=C(O)/C=C/c2ccc(O)c(OC)c2)ccc1O	-35.9% (inactive)	
CC(C)c1oc(=O)cc2c1[C@@H](O)[C@H]1OC(=O)[C@@]3(C)CC[C@@H](O)[C@@]2(C)C13 (stereo partly drawn)	-27.6% (inactive)	
COC(=O)C[C@@H]1CC[C@@H]2[C@H](COc3ccc(NC(=O)c4cc(F)cc(F)c4)cc3C(=O)N2C)O1	-1.07% (inactive)	
COc1ccc2nc(-c3ccc(F)cc3)sc2c1	-5.49% (inactive)	
Cc1c(N=Cc2cc(Br)cc(Br)c2O)cccc1C(=O)O	6.56% (inactive)	
COc1cccc(OC)c1C(=O)Nc1cc(C)nn1-c1nc2ccccc2[nH]1	-11.9% (inactive)	
C[C@H](CO)N1C[C@H](C)[C@H](CN(C)Cc2ccc(C(F)(F)F)cc2)Oc2ccc(NC(=O)CCCCCC(=O)Nc3ccccc3N)cc2CC1=O		activity change, negative = cytotoxicity (at 8 µM (top of the series)): 50% (inactive)
CCCCN=C(NNc1ccc(Br)cc1)C(=O)OCC	-39.4% (inactive)	
Cc1cc(C)cc(OCC(=O)OCC(=O)Nc2cc(S(=O)(=O)N3CCOCC3)ccc2C)c1	-14.2% (inactive)	
CCCCCCN(C(=O)CCCCCN1C(=O)NC(c2ccc(Cl)cc2)C(C(=O)OCc2ccccc2)=C1C)C(C(=O)NCCCC)c1ccc(OCC(=O)OC)c(C(=O)OC)c1 (stereo not drawn)	-3.96% (inactive)	
O=C1CCC2S/C(=C/Nc3ccc(C(F)(F)F)cc3)C(=O)N12 (stereo not drawn)	-9.48% (inactive)	
Cc1ccc(Cl)cc1NC(=O)Cn1cc(C(F)(F)F)cc(Cl)c1=O	0.88% (inactive)	
C=CCOc1ccccc1C(=O)/C=C1/C(=O)Nc2ccccc21	-8.17% (inactive)	
COc1ccc(/C=C2\SC(=S)N(CCCC(=O)NC3CCCC3)C2=O)cc1OC	-24.3% (inactive)	
CCN(CC)c1ccc(C2NC(=O)c3ccccc3N2)cc1 (stereo not drawn)	-18.3% (inactive)	
Cc1ccc(S(=O)(=O)Nc2ccc3c(c2)C(=O)N([C@@H](C)CO)C[C@@H](C)[C@H](CN(C)Cc2ccc(C(F)(F)F)cc2)OCCCC[C@H](C)O3)cc1	-33.3% (inactive)	
C[C@H](CO)N1C[C@H](C)[C@H](CN(C)Cc2ccc(C(=O)Nc3ccccc3N)cc2)Oc2ccc(NS(=O)(=O)c3cccs3)cc2C1=O	-25.3% (inactive)	
O=C(O)c1ccccc1C(=O)Nc1ccc(Oc2ccc3ccccc3c2)cc1	-15.8% (inactive)	
CN(C)C(=S)N=Nc1[nH]c2ccccc2c1O	7.38% (inactive)	
COc1ccc(/C=C2\Oc3ccccc3C2=O)cc1	7.88% (inactive)	
COC(=O)C[C@@H]1CC[C@@H]2[C@H](COc3ccc(NC(=O)Nc4cccc(C#N)c4)cc3C(=O)N2C)O1	53.6% (inactive)	

Reference: PubChem BioAssay AID720588 (Broad Institute, 2013)
